Assay results from US20220089540A1 (Board of Trustees of Michigan State University, priority 2019, published 2022).

Legend:
FOXP3 = FOXP3 mRNA in isolated spleen CD4 T cells skewed towards Tregs; conditions: LG268 added for 4 days
Procedure: Spleen was harvested, and a single cell suspension was made in RPMI media supplemented with 10% FBS; cells were strained through a 40 μm cell strainer and centrifuged at 1200 rpm for 5 minutes. Supernatant was removed, and the cell pellet resuspended in cold MojoSort (Biolegend) and centrifuged at 300 g for 5 minutes. The supernatant was removed, and cells resuspended in 1 ml of MojoSort. […] Cells were then incubated on ice for 15 minutes with the biotin-antibody cocktail (for CD3 #480024; for CD4 #480006, Biolegend). After, streptavidin nanobeads were added and incubated for an additional 15 minutes. Separation columns (Mylteni) were placed in the magnetic separator and activated with 3 ml of MojoSort. The cell mixture was added to the column and the cells of interest were eluted, and then the column was washed 2 more times with MojoSort. The fraction collected was centrifuged at 1200 rpm for 5 minutes. Cells were resuspended in RPMI supplemented with 10% FBS.
For CD4 cell experiments, cells were plated in a 24 well plate at 1×10^6 cells/ml. […] Cells were cultured for a total of 5 days in the presence of anti-CD28 (3 μg/ml, Biolegend), IL2 (5 ng/ml, Biolegend) and TGFβ (5 ng/ml, R&D).

[1] = system: mammary gland tumors of MMTV-Neu mice; assay: MMTV-Neu mouse model of HER2 positive breast cancer, rexinoid in diet
Procedure: Tumors or mammary glands were homogenized in EBC buffer (1M Tris pH 8, 5M NaCl) with the same protease inhibitors and 10% NP-40 and incubated on ice for 30 min. Protein concentrations were determined by the BCA assay (Sigma-Aldrich). Proteins were resolved by SDS-PAGE, transferred to a nitrocellulose membrane and analyzed with the following antibodies: vinculin, p-STAT1, p-STAT3, p-STAT5 and mouse and rabbit secondary antibodies (Cell Signaling); PD-1, CD206 (Abcam); PD-L1 (R&D). ImageJ was used to quantify the immunoblots, and results were plotted and statistically analyzed using Prism 6. All images shown are representative of 3 independent experiments.
One third of the tumor, mammary gland and spleen removed from MMTV-neu or MMTV-PyMT mice were minced separately and incubated in digestion media consisting of collagenase (300 U/ml, Sigma), dispase (1 U/ml, Worthington), and DNAse (2 U/ml, Calbiochem) for 30 minutes at 37° C. with stirring. Cells were then passed through a 40 μm cell strainer (BD Falcon), and red blood cells eliminated with lysis solution. […] Propidium iodide staining was used to exclude dead cells.
One third of the tumor, spleen and one mammary was removed from MMTV-neu and PyMT mice and fixed in 10% phosphate-buffered formalin for 48 hours, embedded in paraffin blocks, and sectioned (5-6 μm). Hydrogen peroxide was used to quench endogenous peroxidase activity. Sections were immunostained with antibodies raised against CD206 (1:200, Abcam), Gr1 (1:40, BM8, R&D), CD8 (1:40, Biolegend), FOXP3 (1:50, EBiosciences), PD-1 (1:100, Abcam), PD-L1 (1:50, Abcam), cleaved caspase 3 (Cell Signaling) and visualized with biotinylated anti-rabbit or anti-rat secondary antibodies (Cell Signaling or Vector Labs). Signal was detected using a DAB substrate (Cell Signaling) following the manufacturer's recommendations. Sections were counterstained with hematoxylin (Vector Labs).
Both rexinoid treatments were 100 mg/kg of diet, which is equivalent to 25 mg/kg of body weight (FIG. 1B).

[2] = system: inducible nitric oxide synthase (iNOS); assay: iNOS suppression / NO assay in LPS-stimulated macrophages or RAW264.7 cells (Griess reaction); assay type: cell-based, mouse; conditions: at 100 nM; comparators of Table 3
Summary of the method: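 RAW264.7 cells or macrophages incubated with rexinoids (300 nM, or 100 nM/300 nM, or a concentration series) and stimulated with 1–2 ng/ml LPS for 24 h. Nitric oxide released into medium measured by Griess reaction; values given as percent of LPS-stimulated control, % inhibition, or IC50.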

E18-14C-27C cancer cells = assay: PD-1 and PD-L1 expression in E18-14C-27C cancer cells; assay type: cell-based, mouse; conditions: 72 hours
Procedure: (§1) RAW 264.7 mouse macrophage-like (ATCC) and E18-14C-27 (Wu et al., Cancer Res. 62, 6376-6380 (2002)) cells were cultured in DMEM supplemented with 10% fetal bovine serum (FBS). RAW 264.7 cells were cultured at 50000/well in a 6 well plate for 24 hours to determine PD-L1 levels. E18-14C-27 cells were cultured for 72 hours in the presence of LG268 for protein levels. Conditioned media was collected from E18-14C-27 at 60-70% confluence for 24 hours; media was then collected and centrifuged at 900 rpm for 5 minutes to eliminate any cell debris.
To determine if these changes occurred in the tumor cells or in the macrophages, E18-14C-27C and RAW 264.7 cell lines were treated with LG268. […] Similar observations were made in human THP-1 monocytic cells stimulated with conditioned media from human HER2 positive SK-BR-3 breast cancer cells and treated with LG268 or bexarotene for 24 hours (FIG. 5E-5F).

PD-L1 [3] = assay: PD-L1 induction in macrophages or RAW264.7 cells with cancer cell conditioned media (flow cytometry); assay type: cell-based, mouse; conditions: for PD-L1 Levels: Table 4, Control 43.3
[4] = Toxicity in A/J mice with lung tumors fed rexinoids plus carboplatin and paclitaxel; assay type: in vivo; conditions: 100 mg/kg diet, 7 weeks
Procedure: A/J mice with lung tumors (detected by ultrasound) were fed rexinoids in their diets (at 100 mg/kg diet) and injected twice every other week with carboplatin and paclitaxel.

PD-L1 [5] = assay: PD-L1 in THP-1 cells stimulated with SK-BR-3 conditioned media (flow cytometry); assay type: cell-based, human; conditions: 24 hours
Procedure: THP-1 (ATCC) cells were cultured in RPMI supplemented with 5% FBS, and SK-BR-3 (ATCC) cells were cultured in DMEM supplemented with 10% FBS. THP-1 cells were cultured at 50000/well in a 6 well plate for 24 hours to determine PD-L1 levels with conditioned media from SK-BR-3 cells. Culturing SK-BR-3 cells at 60-70% confluence for 24 hours generated conditioned media; media was then collected and centrifuged at 900 rpm for 5 minutes to eliminate any cell debris. THP-1 cells were then plated at 100000 cells/well with the conditioned media, LG268 was added simultaneously.
For PD-L1 staining, RAW 264.7 cells were plated at 25000 cells/ml in 6 well plates for 24 hours before adding conditioned media from E18-14C-27 and LG268. RAW 264.7 cells were cultured for additional 24 hours with E18-14C-27 conditioned media and LG268. […] THP-1 cells were stained and analyzed for the levels of PD-L1 following the same protocol.

CD206 = CD206 expression in RAW 264.7 cells stimulated with E18-14C-27 conditioned media (immunoblot); assay type: cell-based, mouse; conditions: increasing concentrations, 24 hours
Procedure: as §1
To explore whether the expression of CD206 in macrophages is dependent on stimulatory factors from tumor cells (e.g., tumor educated macrophages), conditioned media was collected from an established cell line (E18-14C-27 cells) derived from a mammary tumor of an MMTV-Neu mouse. When RAW 264.7 (macrophage-like) cells were stimulated with conditioned media from the E18-14C-27 cancer cells and treated with increasing concentrations of LG268 for 24 hours, a decrease in the expression of CD206 was observed by immunoblotting (FIG. 2E).

CD3 T cells = assay: CD8 subpopulations in isolated spleen CD3 T cells (flow cytometry); assay type: cell-based, mouse; conditions: anti-CD3ε, 3 days
Procedure: Cells were cultured for a total of 3 days.
Yellow zombie (Biolegend) staining was used to exclude dead cells.

[6] = 100 mg/kg diet, LG268 5 days, bexarotene 10 days, western blot

For `Cc1cc2c(cc1C1(c3ccc(C(=O)O)cn3)CC1)C(C)(C)CCC2(C)C` [LG268], which “reduction of FOXP3 mRNA expression vs vehicle control” value (FOXP3) is on record?
Its value is 40%.

What about the “PD-1 expression in tumors vs control” value ([1]; 100 mg/kg diet, 5 days) of the same molecule?
The value was “lower”.

And the “PD-L1 expression in tumors vs control” value ([1]; 100 mg/kg diet, LG268 5 days, CW-V-125 10 days, western blot and/or immunohistochemistry)?
Its value is “significantly higher”.

And the “myeloid derived suppressor cells (CD45+, CD11b+, Gr1+) in tumors” value ([1]; 100 mg/kg diet, LG268 5 days, bexarotene 10 days, control 1.9%)?
The value was 0.8 % of CD45+ immune cells.

And the “mammary tumor size (tumor weight as percentage of total body weight)” value ([1]; 100 mg/kg diet, LG268 5 days, bexarotene 10 days, control diet 3.2%)?
Its value is 1.1 % of total body weight.

And the “cleaved caspase 3 in tumors” value ([1]; 100 mg/kg diet, LG268 5 days, bexarotene 10 days, immunohistochemistry)?
The value was “increase”.

What about the “reduction of CD206 expression in tumor lysates” value [1, 6] of the same molecule?
Its value is 65%.

What about the “reduction of p-STAT1 expression in whole tumor lysates” value [1, 6] of the same molecule?
Its value is 80%.

What about the “activated CD4 T cells (CD45+, CD3+, CD4+, CD25+) in tumors” value ([1]; 100 mg/kg diet, control 27.5%) of the same molecule?
The value was 13.0%.

And the “expression of p-STAT3 or p-STAT5 in tumor lysates” value ([1]; 100 mg/kg diet, western blot)?
The value was “no changes”.

What about the “caliber of the vessels in the tumors” value ([1]; CD31 immunohistochemistry) of the same molecule?
Its value is “reduced”.

What about the “FOXP3 expression in tumors” value ([1]; immunohistochemistry) of the same molecule?
The value was “decreased”.

And the “time to complete regression of the tumors” value ([1]; mouse, in vivo)?
The value was “less than 10 days”.

What about the iNOS [2] of the same molecule?
Its iNOS is 15-30% at 100 nM.

What about the PD-L1 expression (E18-14C-27C cancer cells; flow cytometry) of the same molecule?
The PD-L1 expression was “did not change”.

And the PD-1 expression (E18-14C-27C cancer cells; western blot)?
Its PD-1 expression is “decreased”.

What about the “PD-L1 Levels” value (PD-L1 [3]; 100 nM) of the same molecule?
The value was 66.7.

What about the “PD-L1 Levels” value (PD-L1 [3]; 1000 nM) of the same molecule?
The value was 77.

And the “PD-L1 levels in RAW 264.7 cells with E18-14C-27C conditioned media” value (PD-L1 [3]; 24 hours)?
The value was “increased levels”.

And the “toxicity findings (liver, triglycerides, cholesterol, fur)” value [4]?
Its value is “hepatomegaly, with elevated triglycerides and cholesterol”.

And the “PD-L1 levels in THP-1 human macrophages” value (PD-L1 [5])?
Its value is “increases”.

And the CD206 expression (CD206)?
Its CD206 expression is “decrease”.

What about the “CD8 naive and central memory cells” value (CD3 T cells) of the same molecule?
Its value is “increased percentage”.
